Results taken from article PMC8649774, “A New Class of Cell Wall-Recycling L,D-Carboxypeptidase Determines β-Lactam Susceptibility and Morphogenesis in Acinetobacter baumannii” (mBio, 2021).

Target: T1, ElsL (ElsLHis) (Acinetobacter baumannii, UniProt A0ABX6CN83)
T1 construct: gene FQU82_03167; leaderless cytoplasmic YkuD-domain protein, C-terminal 6xHis (pET28b), expressed in E. coli BL21(DE3), Ni-NTA purified with TCEP
Test: UPLC-MS of reaction products
Assay type: biochemical
Settings: 100 mM Tris-HCl, 37 °C, 2 h, 10 ng enzyme; M4 purified from Caulobacter crescentus sacculi

CC(=O)N[C@H]1[C@H](O[C@H]2[C@H](O[C@H](C)C(=O)N[C@@H](C)C(=O)N[C@H](CCC(=O)N[C@@H](CCC[C@@H](N)C(=O)O)C(=O)N[C@H](C)C(=O)O)C(=O)O)[C@@H](NC(C)=O)C(O)O[C@@H]2CO)O[C@H](CO)[C@@H](O)[C@@H]1O (stereo partly shown) [M4, murotetrapeptide]
UPLC-MS of reaction products: ElsL completely cleaved the M4 substrate to the disaccharide tripeptide (M3)
